Reference: patent publication US20170112182A1 (Next Generation Labs, LLC, priority 2015, published 2017)

Tests used:
[1] = vaping study with 10 subjects rating throat feel and head feel dynamics; assay type: in vivo, human
Description: In rating the head feel dynamics and throat feel of the different compositions, the subjects used the following criteria: […]

[2] = target: α4β2 nAChRs (Homo sapiens, UniProt P17787+P43681); assay type: cell-based
[3] = target: α7 nAChRs (Homo sapiens, UniProt P36544); assay type: cell-based
Sequence of α7 nAChRs (P36544 23-502): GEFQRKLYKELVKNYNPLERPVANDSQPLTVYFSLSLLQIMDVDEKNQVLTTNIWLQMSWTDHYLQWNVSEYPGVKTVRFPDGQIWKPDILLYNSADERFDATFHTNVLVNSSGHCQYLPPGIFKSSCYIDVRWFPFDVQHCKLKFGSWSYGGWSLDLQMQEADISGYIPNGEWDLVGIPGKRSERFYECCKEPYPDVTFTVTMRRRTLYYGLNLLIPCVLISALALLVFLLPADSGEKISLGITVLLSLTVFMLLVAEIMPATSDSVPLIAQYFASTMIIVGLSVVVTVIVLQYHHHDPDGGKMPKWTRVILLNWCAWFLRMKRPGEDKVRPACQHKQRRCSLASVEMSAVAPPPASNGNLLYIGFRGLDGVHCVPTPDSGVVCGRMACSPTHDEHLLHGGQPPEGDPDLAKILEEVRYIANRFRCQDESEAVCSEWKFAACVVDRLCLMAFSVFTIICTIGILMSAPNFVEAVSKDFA

Sequence of α4β2 nAChRs (P43681 29-627 limits assumed): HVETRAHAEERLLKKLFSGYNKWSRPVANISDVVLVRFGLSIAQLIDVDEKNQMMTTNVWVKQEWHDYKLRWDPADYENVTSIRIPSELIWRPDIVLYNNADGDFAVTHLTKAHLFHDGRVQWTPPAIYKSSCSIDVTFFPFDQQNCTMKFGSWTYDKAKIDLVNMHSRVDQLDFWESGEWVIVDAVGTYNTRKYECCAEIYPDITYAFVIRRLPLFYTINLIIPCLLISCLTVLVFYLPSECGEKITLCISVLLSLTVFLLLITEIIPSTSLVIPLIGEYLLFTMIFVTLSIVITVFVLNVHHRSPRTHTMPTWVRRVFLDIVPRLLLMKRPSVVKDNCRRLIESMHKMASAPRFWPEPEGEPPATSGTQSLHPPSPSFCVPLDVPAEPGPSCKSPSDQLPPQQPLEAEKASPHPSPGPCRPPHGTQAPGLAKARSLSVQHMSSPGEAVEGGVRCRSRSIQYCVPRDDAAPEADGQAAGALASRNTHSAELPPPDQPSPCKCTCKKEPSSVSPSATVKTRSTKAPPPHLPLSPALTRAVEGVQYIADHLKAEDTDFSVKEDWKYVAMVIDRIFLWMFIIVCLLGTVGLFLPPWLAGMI
Sequence of α4β2 nAChRs (P17787 26-502): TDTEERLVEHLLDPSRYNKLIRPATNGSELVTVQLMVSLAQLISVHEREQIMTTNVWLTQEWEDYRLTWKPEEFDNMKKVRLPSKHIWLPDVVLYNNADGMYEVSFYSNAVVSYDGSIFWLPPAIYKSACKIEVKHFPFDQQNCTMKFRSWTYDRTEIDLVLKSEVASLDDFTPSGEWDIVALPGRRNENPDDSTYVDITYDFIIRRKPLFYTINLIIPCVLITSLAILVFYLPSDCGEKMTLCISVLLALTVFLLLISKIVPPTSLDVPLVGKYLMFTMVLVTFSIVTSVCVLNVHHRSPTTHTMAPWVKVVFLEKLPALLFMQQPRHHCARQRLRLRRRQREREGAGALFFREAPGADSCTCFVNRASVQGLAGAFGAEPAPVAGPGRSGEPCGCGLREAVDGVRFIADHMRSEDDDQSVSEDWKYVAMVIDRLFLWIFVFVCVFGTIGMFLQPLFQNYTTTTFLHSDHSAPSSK

SMILES | Head Feel Dynamics compared with tobacco-derived counterpart ([1]; 0.3% loading level) | Head Feel Dynamics compared with tobacco-derived counterpart ([1]; 0.6% loading level) | agonist character in words [2] | agonist character in words [3]
CN1CCCC1c1cccnc1 (racemic) [Synthetic RS racemic nicotine, RS-Nicotine] | slightly less effect | slightly less effect |  | 
CN1CCC[C@@H]1c1cccnc1 [Synthetic R nicotine, R nicotine] |  |  | partial agonist | full, weak agonist
CN1CCC[C@H]1c1cccnc1 [Synthetic S nicotine, S-nicotine] | same (within experimental error) | same (within experimental error) |  | 
